Legend:
S. typhimurium = test: Bactericidal activity, percent survival of S. typhimurium suspension; format: cell-based, Salmonella typhimurium; settings: for % Survival at 2 hours: S. typhimurium
Protocol: (§1) All tests in the following examples were performed at 37° C. The efficacy of the enhanced broad range bactericides was determined by assaying bactericidal activity as measured by the percent bacterial survival after treatment with the bactericide. Generally, after incubation of a 10^7 cell per ml suspension of target species with the novel bactericide for specified lengths of time, bacteria were collected by centrifugation for 2 minutes. The bacterial pellet was washed free of the bactericide with a rescue buffer, termed herein Phage buffer (50 mM Tris-HCl buffer pH 7.8, 1 mM MgSO4, 4 mM CaCl2, 0.1M Nacl, and 0.1% gelatin), resuspended and serially diluted into Phage buffer, and 100 μl of the suspended bacteria were spread on nutrient agar plates. Surviving bacteria were determined by scoring colony forming units (CFU) after incubation for 24-48 hours at 37° C.
The control (Test #1) is identical to the control of Example 1 (Table 1).

E. coli = test: Bactericidal activity, percent survival of E. coli at 2 hours; format: cell-based, Escherichia coli; settings: for Percentage E. coli Survival at 2 hours: Tris pH 8.0
Protocol: as §1
The effects of the bactericide were measured as a function of percentage bacteria survival after 2 hours.

Streptococcus agalactiae = test: Bactericidal activity towards Streptococcus agalactiae in milk; format: cell-based; settings: S. agalactiae in milk
Protocol: as §1
However, the combination of the two agents, 0.1% monolaurin and nisin 0.2 μg/ml, is extremely potent towards S. agalactiae. […] Thus, when the application of nisin is limited by its available activity, a bactericide comprising nisin with a surfactant can be expected to be more useful.
(§2) Incubations were in milk at 37° C.

[1] = test system: S. typhimurium on chicken muscle; test: Bactericidal activity towards S. typhimurium on chicken muscle (unadhered cells); format: cell-based, Salmonella typhimurium
Protocol: Incubations were performed in either 50 mM sodium acetate, pH 5.0, or 20 mM Tris, pH 8.0 at 37° C.
Cubes of chicken muscle were cleansed with sodium hypochlorite and povidone iodine prior to use. To inoculate the tissue, the cubes of chicken muscle were dipped into a 10^8 cells/ml suspension of S. typhimurium in 20 mM Tris HCl, pH 8.0. Excess moisture was removed from dipped cubes by tapping. The chicken samples were placed into sufficient buffer containing the nisin composition to cover the tissue and incubated for 2 hours at 37° C. after which the tissue was removed to sufficient Phage buffer to cover the tissue. The bacteria remaining in the test solution were collected by centrifugation, washed with Phage buffer, and combined with bacteria washed from the tissue by Phage buffer. The combined samples (termed "unadhered" cells) were serially diluted and 100 μl aliquots were plated for determination of surviving bacteria.
(§3) Cubes of chicken muscle were cleansed with sodium hypochlorite and povidone iodine prior to use. To inoculate the tissue, the cubes of chicken muscle were dipped into a 10^8 cells/ml suspension of S. typhimurium in 20 mM Tris HCl, pH 8.0. Excess moisture was removed from dipped cubes by tapping. The tissue was placed into sufficient buffer containing the nisin compositions to cover the tissue, and incubated for 2 hours at 37° C. after which the tissue was removed to sufficient Phage buffer to cover the tissue. The bacteria remaining in the test solution were collected by centrifugation, washed with Phage buffer, and combined with bacteria washed from the tissue by Phage buffer. The combined samples (termed "unadhered" cells) were serially diluted and 100 μl aliquots were plated for determination of surviving bacteria.
as §3, with “cleaned” for “cleansed”, “50” for “20”, “sodium acetate buffer,” for “Tris HCl,”, “5.0.” for “8.0.”, “containing” for “containing the”

Listeria monocytogenes [2] = test: Bactericidal activity towards Listeria monocytogenes in Tris buffer; format: cell-based; settings: L. monocytogenes
Protocol: as §1
(§4) Incubations were performed in 20 mM TrisHCl, pH 8.0 at 37° C.

Staphylococcus aureus = test: Bactericidal activity towards Staphylococcus aureus, influence of pH and EDTA; format: cell-based; settings: S. aureus
Protocol: as §1
Incubations were performed in 50 mM sodium acetate buffer, pH 5.0 or 20 m
TrisHCl buffer, pH 8.0 at 37° C.

Listeria monocytogenes [3] = test: Bactericidal activity towards Listeria monocytogenes in milk; format: cell-based; settings: for % Survival 2 hr: L. monocytogenes in milk
Protocol: as §1
An example of where the application of nisin is limited by its available activity is illustrated by the data in Table 15B.
as §2

Coryneform bacteria = test: Bactericidal activity towards Coryneform bacteria; format: cell-based, mixed population of axillary Coryneform bacteria
Protocol: as §1, §4

K. pneumoniae = test: Bactericidal activity, percent survival of K. pneumoniae; format: cell-based, Klebsiella pneumoniae
Protocol: as §1
The effect was measured as a function of percentage bacterial survival after 2 hours.

Streptococcus mutans [4] = test: Bactericidal activity towards Streptococcus mutans at 2 hr; format: cell-based; settings: S. mutans; nisin 0.1 μg/ml, EDTA 0; 20 mM TrisHCl pH 8.0
Protocol: as §1, §4

Escherichia coli = test: Rapid bactericidal activity towards Escherichia coli (1 min); format: cell-based; settings: E. coli; EDTA 1.0 mM, nisin 0; 20 mM Tris pH 7.0
Protocol: as §1
Incubations were performed in 20 mM Tris, pH 7.0 at 37° C.

Streptococcus mutans [5] = test: Kinetics of bactericidal activity towards Streptococcus mutans; format: cell-based; settings: S. mutans, nisin 0 with 1.0 mM EDTA, pH 7.3
Protocol: The suspensions were incubated for various times ranging from 0.5 to 60 minutes with the bactericides. The bactericidal efficacy of the bactericides was estimated by determining the percent survival of bacteria.
Incubations were performed in 20 mM TrisHCl, pH 7.3 at 37° C.

[6] = nisin 3.0 μg/ml, EDTA 0, pH 8.0

## Triton X-100
S. typhimurium; Triton X-100 1.0%, nisin 0, EDTA 0, Tris pH 8.0
  Percentage S. typhimurium Survival at 3 hours: 37.4%
E. coli; Triton X-100 1.0%, nisin 0, EDTA 0
  Percentage E. coli Survival at 2 hours: 100%
E. coli; Triton X-100 1.0%, tests #3 and #4
  bactericidal activity towards E. coli (in words): no significant bactericidal activity

## CCCCCCCCCCCC(=O)OCC(O)CO (stereo not shown) [Monolaurin, monolaurin]
Streptococcus agalactiae; monolaurin 0.01%, nisin 0
  % survival at 2 h: 100%
Streptococcus agalactiae; monolaurin 0.1%, nisin 0
  % survival at 2 h: 4.5%

## Nisin
[1]; nisin 300 ug/ml, 1% BSA, EDTA 0, pH 8.0
  % Survival at 2 hours (Unadhered cells): 0.02%
[1]; nisin 300 ug/ml, EDTA 0, pH 5.0
  % Survival at 2 hours (Unadhered cells): 0.1%
[1]; nisin 300 ug/ml, EDTA 0, pH 8.0
  % Survival at 2 hours (Unadhered cells): 7.5%
Listeria monocytogenes [2]; [6]
  % Survival after 2 hr: 0.71%
Staphylococcus aureus; nisin 3.0 μg/ml, EDTA 0, pH 5.0
  % Survival 2 hr: 0.6%
Staphylococcus aureus; [6]
  % Survival 2 hr: 7.4%
Listeria monocytogenes [3]; nisin 100 μg/ml, monooleate 0
  % Survival 2 hr: 0.56%
Coryneform bacteria; nisin 3 ug/ml, EDTA 0, pH 8.0
  % Survival 2 hr: 0.22%
Streptococcus agalactiae; nisin 0.02 μg/ml, monolaurin 0
  % survival at 2 h: 100%
Streptococcus agalactiae; nisin 0.2 μg/ml, monolaurin 0
  % survival at 2 h: 2.2%
K. pneumoniae; nisin 100 μg/ml, EDTA 0, 20 mM Tris pH 8.0, 37°C
  % Survival at 2 hours: 50%
K. pneumoniae; nisin 300 μg/ml, EDTA 0, Tris pH 8.0
  % Survival at 2 hours: 38%
Streptococcus mutans [4]
  % Survival after 2 hr: 4.3%
S. typhimurium; nisin 10 ug/ml, EDTA 0, BSA 0 (Table 8)
  % Survival at 2 hours: 51.3%
S. typhimurium; nisin 100 ug/ml, EDTA 0, BSA 0 (Table 8)
  % Survival at 2 hours: 1.6%
S. typhimurium; nisin 100 μg/ml, EDTA 0, pH 5.0
  % Survival at 2 hours: 0.6%
S. typhimurium; nisin 100 μg/ml, EDTA 0, pH 8.0 (Table 6)
  % Survival at 2 hours: 4%
S. typhimurium; nisin 50 μg/ml, EDTA 0, 20 mM Tris pH 8.0
  Percentage S. typhimurium Survival at 3 hours: 7.0%
S. typhimurium; nisin 100 μg/ml, EDTA 0, 20 mM Tris pH 8.0
  Percentage S. typhimurium Survival at 3 hours: 1.6%
E. coli; nisin 100 μg/ml, EDTA 0, Triton X-100 0
  Percentage E. coli Survival at 2 hours: 25%
E. coli; nisin 300 μg/ml, EDTA 0, Triton X-100 0
  Percentage E. coli Survival at 2 hours: 8.5%

## O=C([O-])CN(CCN(CC(=O)[O-])CC(=O)O)CC(=O)O.[Na+].[Na+] [EDTA]
Escherichia coli
  % survival at 1 min: 100%
[1]; EDTA 1.0 mM, BSA 1.0%, nisin 0, pH 8.0
  % Survival at 2 hours: 27%
[1]; EDTA 10 mM, nisin 0, methyl paraben 0, 50 mM Na acetate pH 5.0 (Table 10)
  % Survival at 2 hours (Unadhered cells): 11.8%
[1]; EDTA 10 mM, nisin 0, pH 5.0 (Table 7)
  % Survival at 2 hours (Unadhered cells): 6.4%
[1]; EDTA 10 mM, nisin 0, pH 8.0
  % Survival at 2 hours (Unadhered cells): 5.2%
Listeria monocytogenes [2]; EDTA 1.0 mM, nisin 0, 20 mM TrisHCl pH 8.0
  % Survival after 2 hr: 84%
Staphylococcus aureus; EDTA 0.3 mM, nisin 0, pH 8.0
  % Survival 2 hr: 100%
Staphylococcus aureus; EDTA 1.0 mM, nisin 0, pH 8.0
  % Survival 2 hr: 81%
Staphylococcus aureus; EDTA 3.0 mM, nisin 0, pH 5.0
  % Survival 2 hr: 100%
Staphylococcus aureus; EDTA 3.0 mM, nisin 0, pH 8.0
  % Survival 2 hr: 100%
Staphylococcus aureus; EDTA 10 mM, nisin 0, pH 8.0
  % Survival 2 hr: 100%
Staphylococcus aureus; EDTA 30 mM, nisin 0, pH 8.0
  % Survival 2 hr: 100%
Coryneform bacteria; EDTA 0.3 mM, nisin 0, 20 mM TrisHCl pH 8.0
  % Survival 2 hr: 4.6%
Coryneform bacteria; EDTA 1.0 mM, nisin 0, pH 8.0
  % Survival 2 hr: 3.6%
Coryneform bacteria; EDTA 3.0 mM, nisin 0, pH 8.0
  % Survival 2 hr: 8%
Coryneform bacteria; EDTA 10 mM, nisin 0, pH 8.0
  % Survival 2 hr: 36%
K. pneumoniae; EDTA 20 mM, nisin 0, Tris pH 8.0
  % Survival at 2 hours: 22%
S. typhimurium; EDTA 20 mM, nisin 0, 20 mM Tris pH 8.0
  Percentage S. typhimurium Survival at 3 hours: 2.5%
S. typhimurium; EDTA 1.0 mM, BSA 1.0%, nisin 0, 20 mM Tris pH 8.0
  % Survival at 2 hours: 63%
S. typhimurium; EDTA 2.0 mM, nisin 0, 20 mM Tris pH 8.0
  % Survival at 2 hours: 8.7%
S. typhimurium; EDTA 2.0 mM, nisin 0, 50 mM sodium acetate pH 5.0
  % Survival at 2 hours: 38.7%
S. typhimurium; EDTA 10 mM, nisin 0, pH 5.0
  % Survival at 2 hours: 15.2%
S. typhimurium; EDTA 10 mM, nisin 0, pH 8.0
  % Survival at 2 hours: 14%
S. typhimurium; EDTA 50 mM, nisin 0, pH 5.0
  % Survival at 2 hours: 3.5%
S. typhimurium; EDTA 50 mM, nisin 0, pH 8.0
  % Survival at 2 hours: 11.4%
S. typhimurium; EDTA 100 mM, nisin 0, pH 8.0
  % Survival at 2 hours: 45%
E. coli; EDTA 20 mM, nisin 0
  Percentage E. coli Survival at 2 hours: 14.5%
Streptococcus mutans [5]; 3 min
  % Survival: 100%
Streptococcus mutans [5]; 60 min
  % Survival: 100%

## monooleate
Listeria monocytogenes [3]; monooleate 0.1%, nisin 0
  % Survival 2 hr: 67%
Listeria monocytogenes [3]; monooleate 1.0%, nisin 0
  % Survival 2 hr: 63%
Listeria monocytogenes [3]; monooleate by itself, in milk
  bactericidal activity towards L. monocytogenes (in words): no bactericidal activity

Source: patent US5753614A, “Nisin compositions for use as enhanced, broad range bactericides” (AMBI Inc., priority 1995, dated 1998)
